Experimental data as given in PubChem BioAssay (NCI).
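Values below derive from 48-hour exposures of cells grown in 96-well plates, with endpoints linearly interpolated between the two concentrations bracketing the appropriate inhibition level. TGI is the concentration that stops growth completely.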

Columns and labels:
Assay in all cases: DTP human tumour cell line panel, 48 h
COLO 205 colon = tested on: COLO 205 colon
DU-145 prostate = tested on: DU-145 prostate
HCT-116 colon = tested on: HCT-116 colon
HOP-62 NSCLC = tested on: HOP-62 NSCLC
IGROV1 ovarian = tested on: IGROV1 ovarian
MDA-MB-435 = tested on: MDA-MB-435
MOLT-4 leukemia = tested on: MOLT-4 leukemia
OVCAR-3 ovarian = tested on: OVCAR-3 ovarian
RPMI-8226 leukemia = tested on: RPMI-8226 leukemia
SR leukemia = tested on: SR leukemia

Row | SMILES | TGI (COLO 205 colon) [µM] | TGI (DU-145 prostate) [µM] | TGI (HCT-116 colon) [µM] | TGI (HOP-62 NSCLC) [µM] | TGI (IGROV1 ovarian) [µM] | TGI (MDA-MB-435) [µM] | TGI (MOLT-4 leukemia) [µM] | TGI (OVCAR-3 ovarian) [µM] | TGI (RPMI-8226 leukemia) [µM] | TGI (SR leukemia) [µM]
1 | COC(=O)C(Cc1c(C2Nc3ccccc3C2CC(NC(=O)CNC(C)=O)C(=O)OC)[nH]c2ccccc12)NC(=O)CNC(C)=O (stereo not given) | > 100 | > 100 | > 100 | > 69.8 | > 100 | > 100 | > 100 | > 100 | > 100 | > 100
2 | O=S(=O)(c1ccccc1)n1c2ccc(Br)cc2c2nc3ccccc3nc21 | > 100 | > 100 | > 100 | > 100 | > 100 | > 100 | > 100 | > 100 | > 100 | > 100
3 | COC(=O)NCCc1[nH]nc2c1C(=O)C=C(N1CCOCC1)C2=O | > 100 | > 100 | > 100 | > 100 | > 100 | > 100 | > 100 | > 100 | > 100 | > 100
4 | O=C1NC(SSC2=NNC3(C(=O)N2)c2ccccc2-c2ccccc23)=NNC12c1ccccc1-c1ccccc12 | > 10 | > 10 | > 10 | > 10 | > 10 | > 10 | > 10 | > 10 | > 10 | > 10
5 | CCCSc1ccc2[nH]c(N3C(=O)/C(=C/c4ccco4)N=C3c3ccccc3)cc2c1 | 32.8 | > 50 | > 50 | > 50 | > 50 | 28 | > 50 | > 50 | > 50 | > 50
6 | O=S(=O)(O)c1cc(O)c2c(N=Cc3ccccc3O)cc(S(=O)(=O)O)cc2c1 | > 100 | > 100 | > 100 | > 100 | > 100 | > 100 | > 100 | > 100 | > 100 | > 100
7 | COC(=O)C1=C(C(=O)OC)C(C(=O)c2ccc(Br)cc2)N2N=C(c3ccc(Cl)cc3)C=CC12 (stereo not given) | > 100 | > 100 | > 100 | > 100 | > 100 | > 100 | > 100 | > 100 | > 100 | > 100
8 | NC(N)=N/N=C/c1nc2n(c1[N+](=O)[O-])CCS2 | 27.4 | 88.2 | 54.1 | > 100 | > 100 | 74.1 | 63.7 | 70.2 | > 100 | 88.2
9 | O=[N+]([O-])C1CC/C(=N/O)c2nonc21 (stereo not given) | > 10 | > 10 | > 10 | > 10 | > 10 | > 10 | > 10 | > 10 | > 10 | > 10
10 | COC(=O)c1c(O)ccc2c1c1c(n2Cc2ccccc2Cl)C(=O)c2ccccc2C1=O | 15.8 | 29 | 31.2 | 47.9 | 28.3 | 25.2 | 56.1 | 21.8 | 29.5 | 47.8
11 | CC1=Nc2nc(Cl)cn2C(=O)C1(Cl)Cl | > 10 | > 10 | > 10 | > 10 | > 10 | > 10 | > 10 | > 10 | > 10 | > 10
12 | CC(=O)OCCOCn1c2c(c(=S)[nH]c1=O)CCC2 | > 100 | > 100 | > 100 | > 100 | > 100 | > 100 | > 100 | > 100 | > 100 | > 100
13 | CN(CCn1cnc2c1c(=O)n(C)c(=O)n2C)C1CCCCC1 | > 100 | > 100 | > 100 | > 100 | > 100 | > 100 | > 100 | > 100 | > 100 | > 100
14 | CCSc1sc(=Nc2ccc(N=c3sc(C)c(SC)s3)cc2)sc1-c1ccc(C)cc1 | > 100 | > 100 | > 100 | > 100 | > 100 | > 100 | > 100 | > 100 | > 100 | > 100
15 | Cc1[nH]c2c(c1C)S(=O)(=O)c1cc3ccccc3nc1N2 | 46.3 | > 100 | > 100 | 39.8 | 28 | > 100 | > 100 | 45.2 | 40.4 | > 100
16 | CCCCc1ccc(Nc2nc3c(ncn3C3CC(O)C(CN=[N+]=[N-])O3)c(=O)[nH]2)cc1 (stereo not given) | > 100 | > 100 | > 100 | > 100 | > 100 | > 100 | > 100 | > 100 | > 100 | > 100
17 | COc1ccc2nc3ccc(OC)cc3c(SCCO)c2c1 | > 64.3 | 37.1 | > 69.8 | > 100 | > 51.1 | > 100 | > 30.3 | > 100 | 48.9 | > 79.1
